Laboratory results: PMC12621183 (Journal of Medicinal Chemistry, 2025)
Entries after “also recorded” stand apart in the source; their conditions may differ. Read-outs that look alike come from different tables or passages of the source.

Key:
[1] = test system: K562 wild-type cells; assay: cells; format: cell-based; conditions: for CC50: K562 wild-type, 72 h, Annexin V/7-AAD, read-out: LC50 (the source's name); for apoptosis induction: K562 cells, 72-h exposure
Procedure: (§1) K562 wild-type, K562/DOX, OCI-AML3, HaCaT and healthy B cell cytotoxicity screening. Healthy B-lymphocytes were obtained from healthy donor blood samples using density gradient centrifugation with Histopaque.
(§2) All cells were maintained at 37 °C in atmospheric conditions of 5% CO2. Cytotoxicity screening was carried out in triplicate with these cells at a cell density of 0.5 × 10^6 cells/mL. Cells were treated with test compounds at a range of concentrations to establish LC50 values. Cells were incubated with the compounds for 72 h before being harvested by centrifugation. Subsequently, cells were labeled with Annexin V and 7-AAD (bioscience) in accordance with the manufacturer’s instructions. Following staining with FITC-labeled annexin V and 7-AAD, samples were analyzed using CytExpert software on a CytoFLEX LX flow cytometer (Beckman Coulter) to determine relative levels of cell death in the sample. Prism 10 software was then used to analyze the data to obtain dose–response curves.

[2] = test system: K562/DOX cells; assay: cells; format: cell-based
Procedure: as §1, §2

[3] = test system: K562/DOX cells; assay: Effect of P-gp activity on apoptosis using verapamil (K562/DOX); format: cell-based, human; conditions: for Fold change in LC50 (+/- verapamil): efflux factor; for effect of P-gp inhibition by verapamil on cytotoxicity: with and without verapamil
Procedure: Cells were seeded onto 96-well plates at a concentration of 0.5 × 10^6 cells/well in a final volume of 200 μL. […] After a 72-h incubation period with the test compounds, both with and without the inhibitor, apoptotic cells were evaluated using the Annexin V assay to determine the extent of apoptosis.

[4] = target: recombinant ABL1 kinase (Homo sapiens, UniProt P00519); assay: ABL1 kinase assay (ADP-Glo); format: biochemical
recombinant ABL1 kinase, sequence (P00519 whole entry): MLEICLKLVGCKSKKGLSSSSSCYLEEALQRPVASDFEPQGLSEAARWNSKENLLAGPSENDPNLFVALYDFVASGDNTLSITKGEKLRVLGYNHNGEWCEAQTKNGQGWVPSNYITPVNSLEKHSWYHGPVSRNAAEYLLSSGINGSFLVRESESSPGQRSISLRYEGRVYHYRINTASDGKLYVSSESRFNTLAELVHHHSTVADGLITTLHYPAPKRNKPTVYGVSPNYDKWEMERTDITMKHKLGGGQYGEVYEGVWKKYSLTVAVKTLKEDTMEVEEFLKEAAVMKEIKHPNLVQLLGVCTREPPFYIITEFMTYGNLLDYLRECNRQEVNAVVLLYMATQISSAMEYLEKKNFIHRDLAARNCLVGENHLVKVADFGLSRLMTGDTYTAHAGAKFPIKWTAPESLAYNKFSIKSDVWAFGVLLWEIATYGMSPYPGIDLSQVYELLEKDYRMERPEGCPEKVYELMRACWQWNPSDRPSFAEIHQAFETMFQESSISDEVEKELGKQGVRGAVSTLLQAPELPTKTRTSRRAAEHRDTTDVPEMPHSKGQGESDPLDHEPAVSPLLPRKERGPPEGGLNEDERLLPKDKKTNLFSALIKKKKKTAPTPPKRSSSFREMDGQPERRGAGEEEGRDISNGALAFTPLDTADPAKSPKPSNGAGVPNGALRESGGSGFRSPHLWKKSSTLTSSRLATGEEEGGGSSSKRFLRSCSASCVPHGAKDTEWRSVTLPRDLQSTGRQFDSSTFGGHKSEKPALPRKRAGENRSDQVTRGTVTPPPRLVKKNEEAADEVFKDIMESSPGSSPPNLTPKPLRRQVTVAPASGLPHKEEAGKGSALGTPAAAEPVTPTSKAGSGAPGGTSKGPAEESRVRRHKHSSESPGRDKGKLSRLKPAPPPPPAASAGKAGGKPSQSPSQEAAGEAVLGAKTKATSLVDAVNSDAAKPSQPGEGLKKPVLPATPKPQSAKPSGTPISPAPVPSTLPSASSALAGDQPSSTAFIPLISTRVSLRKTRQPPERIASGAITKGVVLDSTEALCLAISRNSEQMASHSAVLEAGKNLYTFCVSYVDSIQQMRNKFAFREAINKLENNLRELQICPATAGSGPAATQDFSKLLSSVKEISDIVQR
Procedure: Kinase inhibition was assessed using luminescent ADP-Glo–based assays. […] No-enzyme and no-compound reactions served as 0% and 100% activity controls, respectively. Luminescence was quantified using a Tecan Spark plate reader, and kinase activity or inhibition was calculated relative to controls.

[5] = target: T1, PDGFRα (D842Y) (Homo sapiens, UniProt P16234, D842Y); assay: PDGFRα (D842Y) Chemi-Verse kinase assay; format: biochemical; conditions: compared with imatinib
T1 construct: purchased Cambridge Biosciences (Chemi-Verse kinase assays)
T1 sequence (P16234 24-1089 D842Y): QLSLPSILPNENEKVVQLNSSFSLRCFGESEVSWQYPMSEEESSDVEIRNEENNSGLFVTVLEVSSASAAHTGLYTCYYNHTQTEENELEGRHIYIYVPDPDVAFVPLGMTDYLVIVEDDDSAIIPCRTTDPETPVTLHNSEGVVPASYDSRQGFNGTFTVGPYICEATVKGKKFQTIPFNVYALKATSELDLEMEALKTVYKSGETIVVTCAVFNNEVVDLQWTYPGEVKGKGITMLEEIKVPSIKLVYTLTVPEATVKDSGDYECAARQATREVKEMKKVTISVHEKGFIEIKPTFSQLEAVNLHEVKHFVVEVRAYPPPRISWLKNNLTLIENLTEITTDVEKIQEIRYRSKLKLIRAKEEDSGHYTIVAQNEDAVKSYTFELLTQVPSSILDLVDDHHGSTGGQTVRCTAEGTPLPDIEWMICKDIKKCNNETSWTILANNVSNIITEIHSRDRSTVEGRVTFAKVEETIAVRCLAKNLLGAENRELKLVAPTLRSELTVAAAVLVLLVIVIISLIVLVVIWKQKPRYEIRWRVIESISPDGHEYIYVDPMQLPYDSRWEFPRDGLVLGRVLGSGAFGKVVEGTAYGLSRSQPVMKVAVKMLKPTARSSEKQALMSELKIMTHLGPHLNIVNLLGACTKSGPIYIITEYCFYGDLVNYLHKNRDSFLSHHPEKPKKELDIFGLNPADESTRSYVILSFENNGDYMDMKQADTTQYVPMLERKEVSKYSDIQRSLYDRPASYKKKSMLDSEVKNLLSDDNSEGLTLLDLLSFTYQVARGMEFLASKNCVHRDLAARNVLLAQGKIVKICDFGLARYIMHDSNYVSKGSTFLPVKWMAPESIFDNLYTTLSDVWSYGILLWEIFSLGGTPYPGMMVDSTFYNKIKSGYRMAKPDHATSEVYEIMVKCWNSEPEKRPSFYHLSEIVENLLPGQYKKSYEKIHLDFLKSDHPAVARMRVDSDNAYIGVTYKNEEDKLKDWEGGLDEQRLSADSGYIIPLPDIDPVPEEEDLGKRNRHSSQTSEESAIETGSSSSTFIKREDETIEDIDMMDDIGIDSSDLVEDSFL
Procedure: (§3) Reactions were set up under the supplier’s recommended conditions, with recombinant kinases (5 ng/μL final), peptide substrates, and ATP in kinase assay buffer. Test inhibitors or vehicle were added, and reactions were incubated at 30 °C for 45 min. ADP formation was quantified with ADP-Glo detection, and percent inhibition was determined relative to DMSO controls.

[6] = target: T2, CSF-1R (Homo sapiens, UniProt P07333); assay: CSF-1R Chemi-Verse kinase assay; format: biochemical; conditions: compared with imatinib
T2 construct: purchased Cambridge Biosciences (Chemi-Verse kinase assays)
T2 sequence (P07333 20-972): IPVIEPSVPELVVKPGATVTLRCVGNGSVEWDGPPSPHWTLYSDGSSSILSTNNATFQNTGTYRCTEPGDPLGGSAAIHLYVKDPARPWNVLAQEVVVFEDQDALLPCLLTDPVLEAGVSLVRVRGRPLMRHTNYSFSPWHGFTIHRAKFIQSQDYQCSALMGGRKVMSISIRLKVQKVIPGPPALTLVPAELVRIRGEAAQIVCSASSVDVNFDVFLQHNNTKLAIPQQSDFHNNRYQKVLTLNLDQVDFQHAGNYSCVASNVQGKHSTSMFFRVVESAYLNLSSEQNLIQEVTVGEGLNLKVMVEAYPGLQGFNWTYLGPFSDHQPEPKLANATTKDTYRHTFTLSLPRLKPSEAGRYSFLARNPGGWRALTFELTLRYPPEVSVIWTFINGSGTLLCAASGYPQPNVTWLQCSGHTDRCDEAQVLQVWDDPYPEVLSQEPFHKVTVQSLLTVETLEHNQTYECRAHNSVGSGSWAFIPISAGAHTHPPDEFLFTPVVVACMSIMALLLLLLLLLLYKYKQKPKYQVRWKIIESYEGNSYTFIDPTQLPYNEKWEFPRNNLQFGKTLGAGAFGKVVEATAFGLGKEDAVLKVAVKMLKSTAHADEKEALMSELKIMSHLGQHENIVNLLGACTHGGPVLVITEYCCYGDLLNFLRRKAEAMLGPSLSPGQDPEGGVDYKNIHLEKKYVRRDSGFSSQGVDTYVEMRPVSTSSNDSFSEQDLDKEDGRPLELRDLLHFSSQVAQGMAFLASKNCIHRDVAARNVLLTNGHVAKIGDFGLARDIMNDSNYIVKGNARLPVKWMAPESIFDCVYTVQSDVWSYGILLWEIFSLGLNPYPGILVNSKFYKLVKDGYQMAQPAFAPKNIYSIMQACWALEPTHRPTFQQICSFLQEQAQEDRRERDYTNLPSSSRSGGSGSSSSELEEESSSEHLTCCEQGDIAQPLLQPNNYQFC
Procedure: as §3

[7] = test system: K562 wild-type cells; assay: LC-MS/MS accumulation assay in K562 wild-type cells; format: in vitro ADME, human; conditions: 50 μM drug, 2 h
Procedure: K562 wild-type and K562/DOX cells were seeded in 6-well plates at a density of 1 × 10^6 cells per well in a final volume of 2 mL and cultured for 24 h at 37 °C in a humidified incubator with 5% CO2. The cells were then treated with 50 μM of the drug and incubated for 2 h. After incubation, the cells were harvested, washed with ice-cold phosphate-buffered saline (PBS), and pelleted. Intracellular drug was extracted by lysing the cells with 400 μL of methanol, aided by sonication. The lysates were centrifuged at 7200 rcf, and the supernatant was collected for analysis by LC-MS/MS. Drug quantification was performed using an external calibration method. Stock solutions of each compound were prepared in methanol and used to generate calibration standards in methanol/DMSO (70:30, %v/v). Experimental samples were diluted in the same solvent mixture prior to analysis. […]
The UHPLC system was coupled to a Shimadzu 8060 triple quadrupole mass spectrometer with an electrospray ionization (ESI) source operating in positive ion mode. […] Multiple reaction monitoring (MRM) transitions (Table S2) were used for quantification with a dwell time of 100 ms per transition. […] Statistical significance of differences in intracellular accumulation between drugs and cell lines was assessed using the nonparametric Mann–Whitney test (n = 6).

[8] = LC-MS/MS accumulation assay in P-gp-overexpressing K562/DOX cells; format: in vitro ADME, human; conditions: human; K562 wild-type vs K562/DOX
Procedure: (§4) K562 wild-type and K562/DOX cells were seeded in 6-well plates at a density of 1 × 10^6 cells per well in a final volume of 2 mL and cultured for 24 h at 37 °C in a humidified incubator with 5% CO2. The cells were then treated with 50 μM of the drug and incubated for 2 h. After incubation, the cells were harvested, washed with ice-cold phosphate-buffered saline (PBS), and pelleted. Intracellular drug was extracted by lysing the cells with 400 μL of methanol, aided by sonication. The lysates were centrifuged at 7200 rcf, and the supernatant was collected for analysis by LC-MS/MS. Drug quantification was performed using an external calibration method. Stock solutions of each compound were prepared in methanol and used to generate calibration standards in methanol/DMSO (70:30, %v/v). Experimental samples were diluted in the same solvent mixture prior to analysis.
(§5) Chromatographic separation was performed on a Shimadzu Nexera XR ultrahigh-performance liquid chromatography (UHPLC) system comprising two LC-20AD pumps, a DGC degasser, a SIL-30AC autosampler, a CBM-20A controller, and a column oven. The system was fitted with an Ascentis Express C18 column (5 cm × 2.1 mm, 2.7 μm particle size). Elution was performed with a binary solvent system: eluent A, 0.1% formic acid in water; eluent B, 0.1% formic acid in methanol. The gradient program was as follows: 5% B for 0.5 min, increased to 40% B over 3.5 min, increased to 95% B over 2 min, held at 95% B for 1.5 min, then returned to 5% B at 8 min and held for 3 min for re-equilibration. The mobile phase flow rate was 0.21 mL/min. The column oven was maintained at 40 °C and the autosampler at 10 °C.
(§6) The UHPLC system was coupled to a Shimadzu 8060 triple quadrupole mass spectrometer with an electrospray ionization (ESI) source operating in positive ion mode. […] Multiple reaction monitoring (MRM) transitions (Table S2) were used for quantification with a dwell time of 100 ms per transition. Data were normalized against standards prepared using the initial drug concentration in the lysis solution. Statistical significance of differences in intracellular accumulation between drugs and cell lines was assessed using the nonparametric Mann–Whitney test (n = 6).

[9] = test system: K562/DOX cells; assay: as above; format: in vitro ADME, human; conditions: for increase in intracellular concentration: K562/DOX relative to K562 wild-type; for intracellular accumulation (concentration): K562/DOX, 50 μM drug, 2 h; for higher intracellular concentration relative to imatinib: within K562/DOX cells
Procedure: as §4, §5, §6

[10] = test system: HaCaT cells; format: cell-based; conditions: ratio of IC50 in HaCaT cells to LC50 in K562 wild-type
Procedure: HaCaT cells were seeded in a 96-well plate in DMEM at a density of 3 × 10^3 cells/well and incubated for 24 h at 37 °C in a humidified incubator with 5% CO2. The cells were then treated with a series of drug concentrations (0.1–100 μM) and incubated for a further 72 h at 37 °C. After treatment, the media in each well, including control wells, was replaced with MTT reagent (0.1 mg/well in media) and incubated for 4 h at 37 °C. Following incubation, the MTT reagent was carefully removed, and 200 μL of DMSO was added to each well to solubilize the formazan crystals. The plate was shaken for 10 min, and the optical density (OD) was measured at 570 nm using a microplate reader.

[11] = test system: healthy B-lymphocytes; assay: Cytotoxicity in healthy B-lymphocytes (Annexin V/7-AAD); format: cell-based; conditions: concentrations up to 100 μM
Procedure: K562 wild-type, K562/DOX, OCI-AML3, HaCaT and healthy B cell cytotoxicity screening. Healthy B-lymphocytes were obtained from healthy donor blood samples using density gradient centrifugation with Histopaque. Informed consent was obtained from all human participants in this study and experiments were performed in accordance with ethical approval granted by the local research ethics committee (17/SW/0263). […]
All cells were maintained at 37 °C in atmospheric conditions of 5% CO2. […] Following staining with FITC-labeled annexin V and 7-AAD, samples were analyzed using CytExpert software on a CytoFLEX LX flow cytometer (Beckman Coulter) to determine relative levels of cell death in the sample. […]

[12] = Homo sapiens, K562, 72 h, read-out: LC50, K562/DOX, 72 h, Annexin V/7-AAD

Molecule: Cc1ccc(NC(=O)c2ccc(CN3CCC(c4ccccn4)CC3)cc2)cc1Nc1nccc(-c2cccnc2)n1 [Compound 9]
- CC50 ([1]; Homo sapiens, K562, 72 h): 21.8 ± 11 µM
- apoptosis induction [1]: induced apoptosis in a dose-dependent manner
- CC50 [1]: 21.8 µM
- CC50 [2, 12]: 20.3 ± 10.3 µM
- CC50 ([2]; human, 72 h): 20.3 µM
- Fold change in LC50 (+/- verapamil) [3]: 4.1
- effect of P-gp inhibition by verapamil on cytotoxicity [3]: reversal of resistance was not significant
- ABL1 inhibition [4]: relatively weak inhibition
- inhibition at 10 µM ([4]; 10 μM, 40 min incubation): 32.2%
- inhibitory activity against PDGFRα (D842Y) [5]: broadly comparable to imatinib
- inhibitory activity against CSF-1R [6]: broadly comparable to imatinib
- intracellular accumulation (concentration) [7]: 23.36 µg/mL
- efflux ratio at 2 h, 50 μM [8]: 0.87
- increase in intracellular concentration [9]: 14.4%
- intracellular accumulation (concentration) [9]: 26.73 µg/mL
- higher intracellular concentration relative to imatinib [9]: ~4.8 fold

Molecule: Cc1ccc(NC(=O)c2ccc(CN3CCC(n4cccc4)CC3)cc2)cc1Nc1nccc(-c2cccnc2)n1 [Compound 12, 4-((4-(1H-Pyrrol-1-yl)piperidin-1-yl)methyl)-N-(4-methyl-3-((4-(pyridin-3-yl)pyrimidin-2-yl)amino)phenyl)benzamide]
- CC50 ([1]; Homo sapiens, K562, 72 h): > 50 µM
- apoptosis induction [1]: inactive
- inhibition at 10 µM ([4]; 10 μM, 40 min incubation): 47.4%

Molecule: Cc1ccc(NC(=O)c2ccc(CN3CCC(c4ccccc4)CC3)cc2)cc1Nc1nccc(-c2cccnc2)n1 [Compound 7]
- CC50 ([1]; Homo sapiens, K562, 72 h): > 50 µM
- apoptosis induction [1]: inactive
- CC50 [2, 12]: > 50 µM
- inhibition at 10 µM ([4]; 10 μM, 40 min incubation): 37.7%

Molecule: 4-Methyl-3-((4-(pyridin-3-yl)pyrimidin-2-yl)amino)phenyl-4-((4-(pyrimidin-2-yl)piperidin-1-yl)methyl)benzamide [Compound 11]
- apoptosis induction [1]: induced apoptosis in a dose-dependent manner
- CC50 [1]: 24.2 ± 12.2 µM
- CC50 ([2]; K562/DOX, 72 h, Annexin V/7-AAD, read-out: LC50 (the source's name)): > 50 µM
- %Kinase inhibition ([4]; 10 μM, 40 min incubation): 26.55%

Molecule: Cc1ccc(NC(=O)c2ccc(CN3CCC(c4ccc(N)cc4)CC3)cc2)cc1Nc1nccc(-c2cccnc2)n1 [Compound 8, 4-((4-(4-Aminophenyl)piperidin-1-yl)methyl)-N-(4-methyl-3-((4-(23yridine-3-yl)pyrimidin-2-yl)amino)phenyl)benzamide]
- CC50 ([1]; Homo sapiens, K562, 72 h): 2.29 µM
- apoptosis induction [1]: induced apoptosis in a dose-dependent manner
- CC50 [2, 12]: 5.29 µM
- Fold change in LC50 (+/- verapamil) [3]: 1.3
- effect of P-gp inhibition by verapamil on cytotoxicity [3]: minimal changes; also recorded: reversal of resistance was not significant
- ABL1 inhibition [4]: moderate inhibition
- inhibition at 10 µM ([4]; 10 μM, 40 min incubation): 40%
- inhibitory activity against PDGFRα (D842Y) [5]: broadly comparable to imatinib
- inhibitory activity against CSF-1R [6]: broadly comparable to imatinib
- intracellular accumulation (concentration) [7]: 14.14 µg/mL
- efflux ratio at 2 h, 50 μM [8]: 0.98
- increase in intracellular concentration [9]: 2.5%
- intracellular accumulation (concentration) [9]: 14.49 µg/mL
- higher intracellular concentration relative to imatinib [9]: approximately 2.6 fold
- Toxicity Index (IC50 HaCaT/LC50 K562) [10]: 3.4
- toxicity in nonmalignant B-lymphocytes [11]: No significant toxicity; also recorded: no significant cytotoxicity

Molecule: Cc1ccc(NC(=O)c2ccc(CN3CCC(n4cnnc4)CC3)cc2)cc1Nc1nccc(-c2cccnc2)n1 [Compound 14, 4-((4-(4H-1,2,4-Triazol-4-yl)piperidin-1-yl)methyl)-N-(4-methyl-3-((4-(pyridin-3-yl)pyrimidin-2-yl)amino)phenyl)benzamide]
- CC50 ([1]; Homo sapiens, K562, 72 h): > 50 µM
- apoptosis induction [1]: inactive
- CC50 [2, 12]: > 50 µM
- inhibition at 10 µM ([4]; 10 μM, 40 min incubation): 36.1%

Molecule: Cc1ccc(NC(=O)c2ccc(CN3CCC(c4ccncc4)CC3)cc2)cc1Nc1nccc(-c2cccnc2)n1 [Compound 10, 4-Methyl-3-((4-(pyridin-3-yl)pyrimidin-2-yl)amino)phenyl-4-((4-(pyridin-4-yl)piperidin-1-yl)methyl)benzamide]
- CC50 ([1]; Homo sapiens, K562, 72 h): > 50 µM
- apoptosis induction [1]: inactive
- CC50 [2, 12]: 37.5 ± 10.1 µM
- CC50 ([2]; human, 72 h): 37.5 µM
- inhibition at 10 µM ([4]; 10 μM, 40 min incubation): 39.6%

Molecule: Cc1ccc(NC(=O)c2ccc(CN3CCC(n4ccnc4)CC3)cc2)cc1Nc1nccc(-c2cccnc2)n1 [Compound 13, 4-((4-(1H-Imidazol-1-yl)piperidin-1-yl)methyl)-N-(4-methyl-3-((4-(pyridin-3-yl)pyrimidin-2-yl)amino)phenyl)benzamide]
- CC50 ([1]; Homo sapiens, K562, 72 h): 18.2 ± 1.9 µM
- apoptosis induction [1]: induced apoptosis in a dose-dependent manner
- CC50 [2, 12]: 32.5 ± 14.5 µM
- Fold change in LC50 (+/- verapamil) [3]: 1.9
- effect of P-gp inhibition by verapamil on cytotoxicity [3]: minimal changes; also recorded: reversal of resistance was not significant
- inhibition at 10 µM ([4]; 10 μM, 40 min incubation): 47.1%
